How the values were obtained:
Nitric oxide synthase 3 = target: T1, Nitric oxide synthase 3 (Homo sapiens, UniProt P29474); assay: Inhibition of cloned (from RNA) human endothelial constitutive Endothelial nitric oxide synthase (heNOS)
T1 sequence (P29474 whole entry): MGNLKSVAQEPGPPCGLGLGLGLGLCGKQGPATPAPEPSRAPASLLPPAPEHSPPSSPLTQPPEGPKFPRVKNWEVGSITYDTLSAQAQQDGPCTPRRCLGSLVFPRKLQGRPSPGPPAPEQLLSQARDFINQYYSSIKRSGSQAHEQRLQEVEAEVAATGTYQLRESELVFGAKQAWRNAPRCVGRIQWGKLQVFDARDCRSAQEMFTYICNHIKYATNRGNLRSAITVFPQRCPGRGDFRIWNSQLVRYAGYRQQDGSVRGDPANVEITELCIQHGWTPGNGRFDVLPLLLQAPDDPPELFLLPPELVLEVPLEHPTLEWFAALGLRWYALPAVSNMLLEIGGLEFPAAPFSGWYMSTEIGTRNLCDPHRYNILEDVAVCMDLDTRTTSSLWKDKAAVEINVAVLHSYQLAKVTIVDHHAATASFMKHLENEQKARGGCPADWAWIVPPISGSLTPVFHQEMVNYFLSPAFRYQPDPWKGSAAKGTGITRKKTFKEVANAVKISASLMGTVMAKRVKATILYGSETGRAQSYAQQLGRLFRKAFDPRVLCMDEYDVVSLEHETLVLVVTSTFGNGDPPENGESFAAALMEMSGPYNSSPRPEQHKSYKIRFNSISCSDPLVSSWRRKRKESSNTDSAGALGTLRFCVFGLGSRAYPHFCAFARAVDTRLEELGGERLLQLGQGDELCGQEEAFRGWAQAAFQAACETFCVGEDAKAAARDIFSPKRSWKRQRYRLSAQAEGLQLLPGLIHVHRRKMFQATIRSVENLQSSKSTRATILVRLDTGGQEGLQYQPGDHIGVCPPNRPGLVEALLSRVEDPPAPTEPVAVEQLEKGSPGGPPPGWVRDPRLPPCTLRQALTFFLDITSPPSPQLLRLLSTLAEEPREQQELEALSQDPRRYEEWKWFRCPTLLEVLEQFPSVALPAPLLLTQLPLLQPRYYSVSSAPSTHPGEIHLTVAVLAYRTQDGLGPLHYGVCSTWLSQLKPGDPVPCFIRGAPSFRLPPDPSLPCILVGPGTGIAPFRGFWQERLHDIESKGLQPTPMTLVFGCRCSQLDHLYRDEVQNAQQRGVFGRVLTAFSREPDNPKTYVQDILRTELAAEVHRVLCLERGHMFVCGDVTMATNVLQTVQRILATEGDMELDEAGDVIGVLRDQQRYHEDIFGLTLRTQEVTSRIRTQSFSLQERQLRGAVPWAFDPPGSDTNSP

[1] = target: T2, Nitric oxide synthase, inducible (Homo sapiens, UniProt P35228); assay: Inhibition of cloned (from RNA) human inducible nitric oxide synthase (hiNOS)
T2 sequence (P35228 whole entry): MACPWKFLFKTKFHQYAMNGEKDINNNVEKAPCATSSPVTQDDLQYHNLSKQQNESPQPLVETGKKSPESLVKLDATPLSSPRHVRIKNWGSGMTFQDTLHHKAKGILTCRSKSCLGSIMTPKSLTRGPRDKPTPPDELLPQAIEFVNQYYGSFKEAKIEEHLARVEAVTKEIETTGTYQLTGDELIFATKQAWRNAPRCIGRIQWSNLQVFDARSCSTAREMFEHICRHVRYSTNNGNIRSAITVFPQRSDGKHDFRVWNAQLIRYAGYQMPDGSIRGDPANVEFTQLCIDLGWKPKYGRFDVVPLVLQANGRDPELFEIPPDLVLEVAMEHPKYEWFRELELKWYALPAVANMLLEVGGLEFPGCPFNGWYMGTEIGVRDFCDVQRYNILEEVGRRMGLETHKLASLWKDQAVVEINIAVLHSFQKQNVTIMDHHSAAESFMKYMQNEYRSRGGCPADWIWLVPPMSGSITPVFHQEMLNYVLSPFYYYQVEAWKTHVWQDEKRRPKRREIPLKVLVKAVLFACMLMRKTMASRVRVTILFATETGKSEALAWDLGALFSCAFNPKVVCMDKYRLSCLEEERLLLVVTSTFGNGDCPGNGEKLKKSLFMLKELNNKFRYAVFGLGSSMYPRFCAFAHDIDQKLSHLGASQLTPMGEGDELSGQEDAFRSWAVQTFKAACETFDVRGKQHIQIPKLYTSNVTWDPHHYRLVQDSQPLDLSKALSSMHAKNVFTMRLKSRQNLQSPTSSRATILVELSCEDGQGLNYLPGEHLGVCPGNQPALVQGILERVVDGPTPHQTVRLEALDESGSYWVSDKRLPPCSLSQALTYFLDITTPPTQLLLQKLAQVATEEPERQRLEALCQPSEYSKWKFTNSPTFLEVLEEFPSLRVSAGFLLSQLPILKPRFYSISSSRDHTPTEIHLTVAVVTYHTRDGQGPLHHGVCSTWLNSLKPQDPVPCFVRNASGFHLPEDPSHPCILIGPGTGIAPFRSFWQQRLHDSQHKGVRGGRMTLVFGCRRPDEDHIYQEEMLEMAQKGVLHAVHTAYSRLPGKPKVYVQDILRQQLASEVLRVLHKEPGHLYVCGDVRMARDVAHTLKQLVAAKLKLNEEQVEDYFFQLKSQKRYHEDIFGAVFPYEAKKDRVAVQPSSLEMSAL

Nitric oxide synthase 1 [2] = target: T3, Nitric oxide synthase 1 (Homo sapiens, UniProt P29475); assay: Inhibition of cloned (from RNA) human Neuronal nitric oxide synthase
T3 sequence (P29475 whole entry): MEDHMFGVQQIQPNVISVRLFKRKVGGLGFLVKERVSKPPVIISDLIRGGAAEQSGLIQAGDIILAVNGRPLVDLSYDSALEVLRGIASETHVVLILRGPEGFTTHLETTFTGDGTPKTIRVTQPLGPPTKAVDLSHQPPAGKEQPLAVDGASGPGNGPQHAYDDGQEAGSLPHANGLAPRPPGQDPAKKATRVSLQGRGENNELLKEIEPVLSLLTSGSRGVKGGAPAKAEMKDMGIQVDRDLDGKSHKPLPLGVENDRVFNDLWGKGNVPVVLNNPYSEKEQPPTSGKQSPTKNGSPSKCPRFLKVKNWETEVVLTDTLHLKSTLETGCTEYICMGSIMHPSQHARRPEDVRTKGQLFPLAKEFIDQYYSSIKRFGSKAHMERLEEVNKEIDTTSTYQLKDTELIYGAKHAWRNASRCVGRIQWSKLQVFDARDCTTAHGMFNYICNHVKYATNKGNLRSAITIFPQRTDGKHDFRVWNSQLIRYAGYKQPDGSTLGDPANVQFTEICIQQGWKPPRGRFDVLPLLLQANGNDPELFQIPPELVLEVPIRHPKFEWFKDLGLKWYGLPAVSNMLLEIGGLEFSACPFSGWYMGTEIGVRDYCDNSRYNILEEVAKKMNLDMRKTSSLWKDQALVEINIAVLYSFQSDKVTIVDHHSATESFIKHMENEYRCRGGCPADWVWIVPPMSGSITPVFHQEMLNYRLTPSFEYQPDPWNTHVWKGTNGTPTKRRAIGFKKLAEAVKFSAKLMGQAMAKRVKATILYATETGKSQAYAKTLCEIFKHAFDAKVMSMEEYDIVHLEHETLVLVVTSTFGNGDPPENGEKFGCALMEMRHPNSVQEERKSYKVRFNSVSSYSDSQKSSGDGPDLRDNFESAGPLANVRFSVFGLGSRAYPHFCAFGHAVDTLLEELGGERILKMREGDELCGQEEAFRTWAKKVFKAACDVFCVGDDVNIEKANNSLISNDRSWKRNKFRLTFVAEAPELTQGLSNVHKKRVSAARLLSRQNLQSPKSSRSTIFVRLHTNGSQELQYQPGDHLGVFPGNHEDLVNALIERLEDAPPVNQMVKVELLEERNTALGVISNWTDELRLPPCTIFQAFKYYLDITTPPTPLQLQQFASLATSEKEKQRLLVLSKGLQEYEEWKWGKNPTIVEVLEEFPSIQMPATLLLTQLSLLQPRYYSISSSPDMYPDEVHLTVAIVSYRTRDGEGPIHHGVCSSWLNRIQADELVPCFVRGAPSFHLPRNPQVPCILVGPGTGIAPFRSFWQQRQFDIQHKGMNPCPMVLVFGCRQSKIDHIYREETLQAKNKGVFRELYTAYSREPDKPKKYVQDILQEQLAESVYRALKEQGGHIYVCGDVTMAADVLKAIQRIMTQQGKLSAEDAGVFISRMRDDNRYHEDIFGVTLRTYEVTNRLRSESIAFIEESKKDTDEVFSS

[3] = target: T4, Nitric oxide synthase 3 (Homo sapiens) (UniProt P29474); assay: Inhibition of cloned (from RNA) human endothelial constitutive Endothelial nitric oxide synthase (heNOS)at 100 uM
T4 sequence (whole entry): T1 sequence (P29474 whole entry)

Nitric oxide synthase 1 [4] = target: T3, Nitric oxide synthase 1; assay: Inhibition of cloned (from RNA) human Neuronal nitric oxide synthase at 100 uM
[5] = target: T2, Nitric oxide synthase, inducible; assay: Inhibition of cloned (from RNA) human inducible nitric oxide synthase (hiNOS) at 100 uM
[6] = target: T4, Nitric oxide synthase 3 (Homo sapiens); assay: Inhibition of cloned (from RNA) human endothelial constitutive Endothelial nitric oxide synthase (heNOS) at 100 uM
[7] = target: T2, Nitric oxide synthase, inducible; assay: Inhibition of cloned (from RNA) human inducible nitric oxide synthase (hiNOS)at 100 uM

IC50 (Nitric oxide synthase 3) [µM]	IC50 [1] [µM]	IC50 (Nitric oxide synthase 1 [2]) [µM]	inhibition [3] [%]	inhibition (Nitric oxide synthase 1 [4]) [%]	inhibition [5] [%]	inhibition [6] [%]	inhibition [7] [%]	Structure (SMILES)
3.5	0.3	0.39						CCCC1N=C(N)CC1C (stereo unspecified)
1.6	0.17	0.17						CCC1N=C(N)CC1C (stereo unspecified)
23.6	0.66	0.85						CCCCC1N=C(N)CC1C (stereo unspecified)
				46		17	64	CCCCCC1N=C(N)CC1(C)C (stereo unspecified)
47.5	0.91	1.31						CCCCCC1N=C(N)CC1C (stereo in doubt; 9)
243	0.36	5.37						CCCCCC1N=C(N)CC1C (stereo in doubt; 10)
336	10	9.05						CCCCCC1N=C(N)CC1C(F)(F)F (stereo in doubt; 13)
392	0.81	5.44						CCCCCC1N=C(N)CC1C(F)(F)F (stereo in doubt; 14)
639	14	11.2						CC1CC(N)=NC1Cc1ccccc1 (stereo in doubt; 16)
226	0.25	3.2						CCCCCC1N=C(N)CC1C (stereo in doubt; 20)
578	4.5	20.6						CCCCCC1N=C(N)CC1C (stereo in doubt; 21)
212	0.23	2.53						CCCCCC1N=C(N)CC1C(F)(F)F (stereo in doubt; 22)
1680	7.5	45.7						CCCCCC1N=C(N)CC1C(F)(F)F (stereo in doubt; 23)

Further lines, the compound ahead of its results:

Structure (SMILES)	IC50 (Nitric oxide synthase 3) [µM]	IC50 [1] [µM]	IC50 (Nitric oxide synthase 1 [2]) [µM]	inhibition [3] [%]	inhibition (Nitric oxide synthase 1 [4]) [%]	inhibition [5] [%]	inhibition [6] [%]	inhibition [7] [%]
CC1CN=C(N)C1 (stereo unspecified)	14.2	1.4	4.7					
CCC1CN=C(N)C1 (stereo unspecified)	29.8	3.4	5.46					
CC1CCN=C1N (stereo unspecified)	9.1	11.3	3					
CC1CCC(N)=N1 (stereo unspecified)	24.9	10.2	9.8					
CC1(C)CC(N)=NC1Cc1ccccc1 (stereo unspecified)				3	17	12		
NC1=NC(Cc2ccccc2)CC1 (stereo unspecified)					47	26	16	
CC1CC(N)=NC1Cc1ccccc1 (stereo in doubt; 11)	458	3	8.29					
NC1=NC(Cc2ccccc2)C(C(F)(F)F)C1 (stereo in doubt; 17)	1010	22	12.1					
NC1=NC(Cc2ccccc2)C(C(F)(F)F)C1 (stereo in doubt; 18)	2920	74	38.3					

— ChEMBL document CHEMBL1131100, “2-Iminopyrrolidines as potent and selective inhibitors of human inducible nitric oxide synthase” (J Med Chem, 1998)
